Assay results as given in ChEMBL document CHEMBL1201862, “PubChem BioAssay data set” (2004).
The source made the active and inactive calls.

Tests used:
[1] = fluconazole-exposed Candida albicans growth modulators – fluorescence, retest, confirmation (AID 2467); format: functional, cell-based
[2] = target: Heat shock protein HSP 90-alpha (Homo sapiens, UniProt P07900); format: functional, organism-based
[3] = NIH-3T3 fibroblast cytotoxicity, dose response, cytotoxicity control, cell-based, fluorescence, Alamar Blue, secondary assay (AID 2327); format: functional;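 also: NIH-3T3 mouse fibroblasts cultured with fluconazole at 8 µg/mL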
HEK293 = assay: EBV LMP1 TES2 canonical NF-kB signalling blockers – cell-based, HEK293, luciferase, cherry-pick, dose response (AID 588343); format: functional; conditions: Homo sapiens
Cysteine protease ATG4B = target: T1, Cysteine protease ATG4B (Homo sapiens, UniProt Q9Y4P1); format: functional;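 also: Fluorescence-based dose-response confirmation assay measuring inhibition of ATG4B activity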
T1 sequence (Q9Y4P1 whole entry): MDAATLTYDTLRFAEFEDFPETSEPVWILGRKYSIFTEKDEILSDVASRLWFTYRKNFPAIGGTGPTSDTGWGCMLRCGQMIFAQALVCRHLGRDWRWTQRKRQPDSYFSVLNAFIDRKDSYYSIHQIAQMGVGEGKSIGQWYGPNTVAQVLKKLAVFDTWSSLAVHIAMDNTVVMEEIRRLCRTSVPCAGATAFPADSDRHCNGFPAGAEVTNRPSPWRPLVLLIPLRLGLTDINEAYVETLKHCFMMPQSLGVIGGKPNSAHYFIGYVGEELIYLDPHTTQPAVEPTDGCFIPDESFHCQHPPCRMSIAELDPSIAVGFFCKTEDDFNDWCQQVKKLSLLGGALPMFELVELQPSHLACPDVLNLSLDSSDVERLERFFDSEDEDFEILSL

Phospholipase A2 = Phospholipase A2 (Homo sapiens, UniProt P04054); format: functional;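 also: confirmatory dose-response counterscreen on phospholipase A2, testing hits that came from an ultra-high-throughput screen for ATG4B inhibitors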
[4] = target: T2, Adenosylmethionine-8-amino-7-oxononanoate aminotransferase (Mycobacterium tuberculosis, UniProt P9WQ81); assay: Mycobacterium tuberculosis BioA enzyme inhibitor Measured in Biochemical System Using Plate Reader - 2163-02_Inhibitor_Dose_CherryPick_Activity.; format: functional, Mycobacterium tuberculosis UT205
T2 sequence (P9WQ81 whole entry): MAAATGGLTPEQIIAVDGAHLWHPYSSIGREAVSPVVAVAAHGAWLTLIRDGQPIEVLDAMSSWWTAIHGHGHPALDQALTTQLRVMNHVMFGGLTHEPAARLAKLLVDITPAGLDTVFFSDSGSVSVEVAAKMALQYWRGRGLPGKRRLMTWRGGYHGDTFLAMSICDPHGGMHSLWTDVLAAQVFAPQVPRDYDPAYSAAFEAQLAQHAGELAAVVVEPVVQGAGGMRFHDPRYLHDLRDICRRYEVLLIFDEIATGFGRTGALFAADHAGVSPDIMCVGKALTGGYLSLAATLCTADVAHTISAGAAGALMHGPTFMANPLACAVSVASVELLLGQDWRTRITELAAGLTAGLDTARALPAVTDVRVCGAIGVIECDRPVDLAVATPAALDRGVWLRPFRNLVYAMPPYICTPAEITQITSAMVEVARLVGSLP

Beta-lactamase [5] = target: T3, Beta-lactamase (Pseudomonas aeruginosa, UniProt Q79MP6); assay: inhibition of IMP-1 beta-lactamase activity – biochemical, epi-absorbance, selectivity assay for VIM-2 inhibitor project, dose response (AID 1920)
Beta-lactamase [6] = target: T3, Beta-lactamase; assay: […] counterscreen for selective VIM-2 inhibitors: dose response biochemical high throughput screening assay to identify inhibitors of IMP-1 metallo-beta-lactamase.
Beta-lactamase [7] = target: Beta-lactamase (Salmonella choleraesuis (strain SC-B67), UniProt Q5J463); assay: Epi-absorbance-based counterscreen for selective VIM-2 inhibitors: dose response biochemical high throughput screening assay to identify inhibitors of TEM-1 serine-beta-lactamase.
[8] = TNFa-induced NF-kB reporter signal decrease – HEK293 LMP1 reporter cells, dry powder, set 2, selectivity assay for EBV LMP1 NF-kB inhibitor project, dose response (AID 624369); format: functional
[9] = target: T4, Corticotropin-releasing factor receptor 2/Corticotropin-releasing factor-binding protein (Homo sapiens, UniProt P24387+Q13324); assay: activators of CRF receptor 2 with binding protein – uHTS hits, confirmation (AID 602473); format: functional; conditions: read-out: EC50_Mean
T4 sequence (Q13324 whole entry): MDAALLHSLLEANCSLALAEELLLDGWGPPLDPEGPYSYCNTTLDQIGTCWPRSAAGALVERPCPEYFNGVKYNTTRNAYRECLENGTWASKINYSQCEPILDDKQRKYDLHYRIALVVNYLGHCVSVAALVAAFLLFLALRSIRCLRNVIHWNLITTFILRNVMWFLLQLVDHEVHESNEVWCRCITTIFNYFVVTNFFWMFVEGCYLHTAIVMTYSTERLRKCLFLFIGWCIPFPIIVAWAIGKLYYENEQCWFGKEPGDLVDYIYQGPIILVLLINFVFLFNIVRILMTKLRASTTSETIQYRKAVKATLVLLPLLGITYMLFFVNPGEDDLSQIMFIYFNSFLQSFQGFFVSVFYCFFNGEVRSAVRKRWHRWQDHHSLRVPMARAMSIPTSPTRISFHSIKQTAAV
T4 sequence (P24387 whole entry): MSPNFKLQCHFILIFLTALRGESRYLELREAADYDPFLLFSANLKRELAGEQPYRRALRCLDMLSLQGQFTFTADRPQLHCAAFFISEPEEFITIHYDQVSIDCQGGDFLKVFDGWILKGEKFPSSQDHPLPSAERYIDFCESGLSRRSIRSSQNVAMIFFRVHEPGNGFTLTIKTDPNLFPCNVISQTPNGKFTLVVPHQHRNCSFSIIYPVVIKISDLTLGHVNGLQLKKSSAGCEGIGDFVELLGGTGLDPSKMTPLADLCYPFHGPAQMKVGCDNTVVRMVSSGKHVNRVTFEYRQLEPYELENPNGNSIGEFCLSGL

[10] = target: T5, Sentrin-specific protease 8 (Homo sapiens, UniProt Q96LD8); format: functional
T5 sequence (Q96LD8 whole entry): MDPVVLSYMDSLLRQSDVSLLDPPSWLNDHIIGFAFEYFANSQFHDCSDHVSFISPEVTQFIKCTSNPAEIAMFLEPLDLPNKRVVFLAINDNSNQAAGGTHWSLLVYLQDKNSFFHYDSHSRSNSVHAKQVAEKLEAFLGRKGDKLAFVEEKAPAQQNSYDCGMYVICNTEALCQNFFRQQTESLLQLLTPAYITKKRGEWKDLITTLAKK

[11] = target: T5, Sentrin-specific protease 8; format: functional; remark: listed apart in the source
HeLa = assay: ATP-based viability loss in HeLa cells – cell-based, CellTiter-Glo luminescence, cherry-pick samples, cytotoxicity control for MITF activator project, dose response (AID 540259); format: functional; conditions: Homo sapiens
Streptococcus = assay: GAS UMAA2166 growth inhibition – luminescence, BacTiterGlo, counter-screen for streptokinase expression inhibitor project, dose response (AID 1915); format: functional, organism-based;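 also: potency for reduction of bacterial viability or growth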
Streptokinase A = target: T6, Streptokinase A (Streptococcus pyogenes serotype M1, UniProt P10520); assay: viability-normalized secreted streptokinase activity reduction – plasminogen activation absorbance, OD405, dose response (AID 1914); format: functional, Streptococcus pyogenes M1 GAS;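 also: secreted streptokinase activity via plasminogen activation per viability signal from cell pellet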
T6 sequence (P10520 whole entry): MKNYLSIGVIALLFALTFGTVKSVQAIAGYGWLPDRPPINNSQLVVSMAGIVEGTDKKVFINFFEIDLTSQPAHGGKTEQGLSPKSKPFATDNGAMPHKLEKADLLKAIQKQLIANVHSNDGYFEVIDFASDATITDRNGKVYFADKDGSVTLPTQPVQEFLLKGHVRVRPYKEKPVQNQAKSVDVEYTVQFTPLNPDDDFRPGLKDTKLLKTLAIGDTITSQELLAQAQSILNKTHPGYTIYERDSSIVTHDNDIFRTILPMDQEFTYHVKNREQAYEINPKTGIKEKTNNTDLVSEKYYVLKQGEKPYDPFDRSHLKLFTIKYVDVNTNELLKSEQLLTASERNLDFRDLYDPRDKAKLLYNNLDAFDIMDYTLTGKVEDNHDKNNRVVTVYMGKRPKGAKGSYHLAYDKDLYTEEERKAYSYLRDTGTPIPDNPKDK

[12] = test system: Streptococcus sp. 'group A'; assay: Streptococcus pyogenes SK(-)GAS viability under kanamycin – luminescence, BacTiterGlo, confirmation, counter-screen for streptokinase expression inhibitor project, dose response (AID 1900); format: functional, organism-based
[13] = CCR5-tropic HIV-1 fusion blockers – cell-based, CCR5-tropic Env, dose response (AID 2279); format: functional
[14] = reduction of Shn3 3'UTR-driven luciferase in osteoblasts – cell-based, Clone20 osteoblasts, firefly luciferase, cherry-picked, dose response (AID 624132); format: functional;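 also: firefly luciferase luminescence from reporter carrying the Shn3 3'UTR in osteoblasts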
[15] = alpha-synuclein stem-loop luciferase translation blockers – H4 neuroglioma cells, luminescence, confirmation (AID 1988); format: functional, cell-based
[16] = loss of viability in HepG2 cells – cell-based, CellTiter-Glo, cherry-picked, cytotoxicity control for Shn3 inhibitor project, dose response (AID 624134); format: functional
[17] = luciferase reporter signal suppression in cells – H4 neuroglioma cells, luminescence, dose response (AID 1990); format: functional, cell-based
[18] = non-specific 3'UTR reporter inhibition in Clone20-Shn3RL – cell-based, Renilla luciferase, cherry-picked, counter-screen for Shn3 inhibitor project, dose response (AID 624133); format: functional
[19] = target: FAD-linked sulfhydryl oxidase ALR (Homo sapiens, UniProt P55789); assay: ALR-catalysed DTT oxidation blockers – biochemical, H2O2 detection, luminescence, cherry-pick, dose response (AID 493248)
Nonstructural protein 1 = Nonstructural protein 1 (Influenza A virus, UniProt Q194T2); format: functional, Influenza A virus (A/California/07/2009(H1N1))
[20] = Luminescence Cell-Based Dose Response HTS to Identify Inhibitors of 5'UTR Stem-Loop Driven Prion Protein mRNA Translation in H4 Neuroglioblastoma Cells. [Related pubchem assays: 1827 (Project Summary), 1813 (Primary HTS)]; format: functional
[21] = Luminescence Cell-Based Dose Response HTS to Identify Activators of Luciferase Translation or Activity in H4 […] Cells. [Related pubchem assays: 1829 (Project Summary), 1814 (Primary HTS)]; format: functional
[22] = Luminescence Cell-Based Dose Confirmation HTS to Identify Activators of 5'UTR Stem-Loop Driven Alpha-Synuclein mRNA Translation in H4 Neuroglioblastoma Cells. [Related pubchem assays: 1829 (Project Summary), 1814 (Primary HTS)]; format: functional
H4 = assay: Luminescence Cell-Based Dose Response HTS to Identify Activators of 5'UTR Stem-Loop Driven Prion Protein mRNA Translation in H4 Neuroglioblastoma Cells. [Related pubchem assays: 1829 (Project Summary), 1814 (Primary HTS)]; format: functional; conditions: Homo sapiens
[23] = Trypanosoma cruzi growth suppression in host cells – NIH3T3 host cells, beta-gal luminescence, confirmation (AID 2044); format: functional, cell-based;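 also: intracellular parasites grown in NIH/3T3 mouse fibroblasts as host cells; luminescent beta-galactosidase reporter signal from transgenic T. cruzi replicating inside host cells; inhibitors lower the luminescence signal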
[24] = NIH3T3 cell viability loss – ATP luminescence, mouse fibroblasts, counter-screen, dose response (AID 2010); format: functional, cell-based;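 also: cells exposed to compound for about 90 hours before reading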

Sequence of Phospholipase A2 (P04054 whole entry): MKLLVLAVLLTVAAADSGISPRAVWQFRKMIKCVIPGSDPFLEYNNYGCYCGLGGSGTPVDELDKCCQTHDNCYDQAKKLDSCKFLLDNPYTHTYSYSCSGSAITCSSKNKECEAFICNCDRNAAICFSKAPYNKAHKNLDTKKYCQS
T3 sequence (Q79MP6 whole entry): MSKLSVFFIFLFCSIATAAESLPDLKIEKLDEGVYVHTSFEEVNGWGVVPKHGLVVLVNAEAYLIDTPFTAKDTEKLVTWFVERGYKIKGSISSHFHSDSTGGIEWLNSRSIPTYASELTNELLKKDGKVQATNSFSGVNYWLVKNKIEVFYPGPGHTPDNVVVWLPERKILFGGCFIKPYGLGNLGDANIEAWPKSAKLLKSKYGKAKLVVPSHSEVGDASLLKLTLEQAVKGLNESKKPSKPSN
Sequence of Beta-lactamase (Salmonella choleraesuis (strain SC-B67), UniProt Q5J463) (Q5J463 whole entry): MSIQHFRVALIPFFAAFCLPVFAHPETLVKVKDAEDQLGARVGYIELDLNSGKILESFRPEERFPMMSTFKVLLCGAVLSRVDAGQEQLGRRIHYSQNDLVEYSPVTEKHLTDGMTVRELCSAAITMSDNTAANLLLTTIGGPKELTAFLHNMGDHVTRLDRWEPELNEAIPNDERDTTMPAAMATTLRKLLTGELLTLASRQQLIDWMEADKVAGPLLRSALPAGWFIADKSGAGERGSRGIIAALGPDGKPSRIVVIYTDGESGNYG
Sequence of Nonstructural protein 1 (Q194T2 whole entry): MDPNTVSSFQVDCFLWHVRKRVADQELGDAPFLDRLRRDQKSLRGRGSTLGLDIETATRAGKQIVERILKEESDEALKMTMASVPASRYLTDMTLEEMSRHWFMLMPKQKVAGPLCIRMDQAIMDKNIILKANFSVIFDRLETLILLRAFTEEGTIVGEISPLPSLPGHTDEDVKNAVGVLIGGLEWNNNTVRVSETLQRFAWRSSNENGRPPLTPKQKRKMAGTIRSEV
Sequence of FAD-linked sulfhydryl oxidase ALR (P55789 whole entry): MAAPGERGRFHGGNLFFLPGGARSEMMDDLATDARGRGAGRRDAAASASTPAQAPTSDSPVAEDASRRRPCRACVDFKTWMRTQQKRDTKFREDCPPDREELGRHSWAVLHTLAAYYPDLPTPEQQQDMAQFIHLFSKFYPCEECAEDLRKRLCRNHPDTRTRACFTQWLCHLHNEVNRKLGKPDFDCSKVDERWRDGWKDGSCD

SMILES: O=C(Oc1c(Cl)cc(Cl)c2cccnc12)c1cccc([N+](=O)[O-])c1
- EC50 [1]: 0.119 µM (active)
- AC50 [2]: 14.3 µM (active)
- EC50 [3]: 5.41 µM (active)
- AC50 (HEK293): 30.6 µM (active)

SMILES: CCc1ccc2c(c1)C(c1ccc([N+](=O)[O-])cc1)=NNC(c1ccccc1)=N2
- IC50 (Cysteine protease ATG4B): 0.399 µM (active)
- IC50 (Phospholipase A2): 0.357 µM (active)

SMILES: O=C(c1ccncc1)N1CC[C@@H]2[C@H](CO)Nc3ccc(Br)cc3[C@@H]21
- AC50 [4]: 1.17 µM (active)

SMILES: Cc1ccc(-c2c(C(=O)O)c(C(=O)O)c3n2CSC3)cc1
- IC50 (Beta-lactamase [5]): > 59.6 µM (inactive)
- IC50 (Beta-lactamase [6]): 15.7 µM (inactive)
- IC50 (Beta-lactamase [7]): > 59.6 µM (inactive)

SMILES: C[C@@H]1CN([C@H](C)CO)S(=O)(=O)c2ccc(/C=C/c3ccccc3)cc2O[C@H]1CN(C)C(=O)NC1CCCCC1
- AbsAC35 [8]: 64.61 µM

SMILES: COc1ccc(C=Cc2ccc3ccccc3n2)c(OC)c1
- AC50 (HEK293): 14.5 µM (active)
- EC50 [9]: > 53 µM (inactive)

SMILES: O=C(CS(=O)(=O)Cc1ccccc1)N1CCc2ccccc2C1
- IC50 [10]: 6.67 µM (active)
- IC50 [11]: 11.4 µM (active)

SMILES: O=C(O)c1cc(-c2ccc(-c3c(-c4ccc5c(c4)OCO5)noc3-c3ccsc3)cc2)nc2ccccc12
- IC50 (Cysteine protease ATG4B): 6.81 µM (active)
- AC50 (HeLa): 52.5 µM (active)
- EC50 (Streptococcus): 3.63 µM (active)
- EC50 (Streptokinase A): > 150 µM (not active)
- EC50 [12]: 1.85 µM (active)
- IC50 [13]: 37.7 µM (active)
- IC50 (Phospholipase A2): 2.26 µM (active)

SMILES: CCCOc1ccc2c3c(c(=O)oc2c1OCCC)CCC3
- IC50 (Cysteine protease ATG4B): 11.4 µM (active)
- AC50 [4]: 14.7 µM (active)
- IC50 (Phospholipase A2): 7.13 µM (active)

SMILES: Cc1ccc(S(=O)(=O)Nc2ccc(O)c3ncccc23)cc1
- AC50 [14]: 1.55 µM (active)
- EC50 [15]: 10.6 µM (active)
- AC50 [16]: 41.4 µM (active)
- EC50 [17]: 15.1 µM (active)
- EC50 [1]: 2.12 µM (inconclusive)
- AC50 [18]: 0.715 µM (active)
- AC50 [19]: 5.2 µM (active)
- EC50 [3]: 28.4 µM (active)
- IC50 (Nonstructural protein 1): 16 µM (active)
- EC50 [20]: > 30 µM (not active)

SMILES: O=C(c1ccncc1)N1CC[C@@H]2[C@H]1c1cc(Br)ccc1N[C@@H]2CO
- AC50 [4]: 0.894 µM (active)

SMILES: O=C(/C=C/NNC(=O)c1ccc(Cl)cc1)c1ccccc1
- EC50 [21]: > 120 µM (not active)
- EC50 [22]: > 120 µM (not active)
- IC50 [10]: 37.4 µM (active)
- EC50 (H4): 49.6 µM (active)
- IC50 [11]: > 100 µM (inactive)

SMILES: CCCc1cc(=O)oc2c3c(cc(OCC(=O)N4CCC[C@H]4C(=O)O)c12)OC(C)(C)CC3
- IC50 (Beta-lactamase [5]): > 59.6 µM (inactive)
- IC50 (Beta-lactamase [6]): > 59.6 µM (inactive)
- IC50 (Beta-lactamase [7]): > 59.6 µM (inactive)

SMILES: CCOc1cc(CNCc2ccccc2)ccc1OCc1ccc(Cl)cc1
- AC50 [14]: 6.69 µM (active)
- EC50 [23]: 2.88 µM (active)
- AC50 [16]: 19.7 µM (active)
- EC50 [24]: > 16 µM (not active)
- AC50 [18]: 5.41 µM (active)
